Key:
[1] = biological target: T1, yeast HSP90 (Saccharomyces cerevisiae, UniProt P02829); assay: Malachite green ATPase assay; assay type: biochemical; conditions: activity range
T1 construct: made in house; host or cells: E. coli
From the text: The intrinsic ATPase activity of HSP90 may be measured using yeast HSP90 as a model system. The assay, based on the use of malachite green for the measurement of inorganic phosphate, was used to test the HSP90 inhibitory activity of the compounds of the Examples herein.
Malachite Green ATPase Assay
Chemicals are of the highest purity commercially available and all aqueous solutions are made up in AR water. Because of the need to minimise contamination with inorganic phosphate, precautions should be taken with solutions and apparatus used in the assays. Glassware and pH meters are rinsed with double distilled or deionised water before use and, wherever possible, plastic ware should be used. Gloves are worn for all procedures. • (1) Greiner 384-well (Greiner 781101) or Costar 384-well flat-bottomed polystyrene multiwell plates (VWR). • (2) Assay buffer of (a) 100 mM Tris-HCl, pH 7.4, (b) 150 mM KCl, (c) 6 mM MgCl2. Stored at room temperature. • (3) 0.0812% (w/v) malachite green (M 9636, Sigma Aldrich Ltd., Poole, UK). Stored at room temperature. • (4) 2.32% (w/v) polyvinyl alcohol USP (P 1097, Sigma Aldrich Ltd, Poole, UK) in boiling water (see Comment 1), allowed to cool, and stored at room temperature. • (5) 5.72% (w/v) ammonium molybdate in 6 M hydrochloric acid. Stored at room temperature. • (6) 34% (w/v) sodium citrate. Stored at room temperature. • (7) 100 mM ATP, disodium salt, special quality (47699, Sigma Aldrich). Stored at −20° C. • (8) E. coli expressed yeast HSP90 protein, purified >95% (see, e.g., Panaretou et al., 1998) and stored in 50 uL aliquots at −80° C.
Method • 1. Dilute test compounds to 500 μM in AR water (DMSO concentration will be 2.5%). Transfer 2.5 μl of these compounds directly from the daughter plate to the assay plate, giving a final assay concentration of 100 μM. To obtain 12 point IC50 values, perform serial dilutions 1:2 to produce a range of assay concentrations from 100 μM to 97.6 nM (2.5% DMSO), and transfer 2.5 μl of each concentration into the assay plate. Column 1 in the assay plate contains no compound, as a negative control. An additional row with no compound is also used as a background. • 2. Prepare ATP by diluting 100 mM stock to 925 μM with assay buffer, and aliquot 5 μl of diluted ATP to each well including controls (final assay concentration 370 μM). • 3. Add 5 μl of buffer to background row. • 4. Dilute enzyme preparation to 1.05 μM with assay buffer, and aliquot 5 μl into each compound well and to the negative control column. • 5. Collect the reagents to the bottom of the well, cover plate with plate seal and incubate overnight at 37 degC. • 6. First thing in the morning prepare the Malachite Green Reagent. Add 2 parts of Malachite Green Solution, 1 part of Polyvinyl Alcohol Solution, 1 part of Ammonium Molybdate Solution, and 2 parts of AR water. • 7. Invert to mix, and leave for approximately 1 hour until the colour turns from brown to golden yellow. • 8. Add 40 μl of Malachite Green Reagent to each well, allow 5 mins for colour to develop. • 9. Add 5 μl of Sodium Citrate Reagent to each well (see comment 2) • 10. Re-cover with plate seal and shake on plate shaker for at least 15 mins. • 11. Measure Absorbance at 620 nm using a suitable plate reader (e.g. Victor, Perkin Elmer Life Sciences, Milton Keynes, UK).
Comments • (1) The polyvinyl alcohol dissolves in boiling water with difficulty and stirring for 2-3 h is required. • (2) The time interval between addition of the malachite green reagent and the sodium citrate should be kept as short as possible in order to reduce the non-enzymatic hydrolysis of ATP. Once the sodium citrate is added, the colour is stable for up to 4 h at room temperature. • (3) Compounds can be added to the assay plates using a Biomek FX Robot (Beckman Coulter).

[2] = Sulforhodamine B (SRB) growth inhibition assay; assay type: cell-based; conditions: SRB growth arrest assay
Procedure: A growth inhibition assay was also employed for the evaluation of candidate HSP90 inhibitors:
Day 1 • 1) Determine cell number by haemocytometer. • 2) Using an 8 channel multipipettor, add 160 μl of the cell suspension (3600 cells/well or 2×10^4 cells/ml) to each well of a 96-well microtitre plate. • 3) Incubate overnight at 37° C. in a CO2 incubator.
Day 2 • 4) Stock solutions of drugs are prepared, and serial dilutions of each drug are performed in medium to give final concentrations in wells. • 5) Using a multipipettor, 40 μl of drug (at 5× final concentration) is added to quadruplicate wells. • 6) Control wells are at either side of the 96 well plates, where 40 μl of medium is added. • 7) Incubate plates in CO2 incubator for 4 days (48 hours).
Day 6 • 8) Tip off medium into sink and immerse plate slowly into 10% ice cold trichloroacetic acid (TCA). […] Leave for 15 mins. • 12) Wash off unbound SRB stain with four washes of 1% acetic acid. • 13) Dry plates in incubator. • 14) Solubilise SRB using 100 μl of 10 mM Tris base and put plates on plate shaker for 5 mins. • 15) Determine absorbance at 540 nm using a plate reader. Calculate mean absorbance for quadruplicate wells and express as a percentage of value for control, untreated wells. • 16) Plot % absorbance values versus log drug concentration and determine the IC50.

[3] = biological target: T2, human full-length HSP90 (Homo sapiens, UniProt P08238); assay: Fluorescence polarization (FP) binding assay; conditions: FP assay (asterisk in table), activity range
T2 construct: E. coli expressed human full-length HSP90 protein; made in house; host or cells: E. coli
From the text: Fluorescence Polarization Assay
Fluorescence polarization {also known as fluorescence anisotropy} measures the rotation of a fluorescing species in solution, where the larger molecule the more polarized the fluorescence emission. When the fluorophore is excited with polarized light, the emitted light is also polarized. The molecular size is proportional to the polarization of the fluorescence emission.
The fluoroscein-labelled probe—RBT0045864-FAM—
[drawing 121] binds to HSP90 {full-length human, full-length yeast or N-terminal domain HSP90} and the anisotropy {rotation of the probe:protein complex} is measured.
Test compound is added to the assay plate, left to equilibrate and the anisotropy measured again. Any change in anisotropy is due to competitive binding of compound to HSP90, thereby releasing probe.
Chemicals are of the highest purity commercially available and all aqueous solutions are made up in AR water. • 1) Costar 96-well black assay plate #3915 • 2) Assay buffer of (a)100 mM Tris pH7.4; (b) 20 mM KCl; (c) 6 mM MgCl2. Stored at room temperature. • 3) BSA (bovine serum albumen) 10 mg/ml (New England Biolabs # B9001S) • 4) 20 mM probe in 100% DMSO stock concentration. Stored in the dark at RT. Working concentration is 200 nM diluted in AR water and stored at 4° C. Final concentration in assay 80 nM. • 5) E. coli expressed human full-length HSP90 protein, purified >95% (see, e.g., Panaretou et al., 1998) and stored in 50 μL aliquots at −80° C.
Protocol • 1) Add 100 μl 1× buffer to wells 11 A and 12A (=FP BLNK) • 2) Prepare assay mix—all reagents are kept on ice with a lid on the bucket as the probe is light-sensitive.
• 3) Aliquot 100 μl assay mix to all other wells • 4) Seal plate and leave in dark at room temp for 20 minutes to equilibrate
Compound Dilution Plate—1×3 Dilution Series • 1) In a clear 96-well v-bottom plate—{# VWR 007/008/257} add 10 μl 100% DMSO to wells B1 to H11 • 2) To wells A1 to A11 add 17.5 μl 100% DMSO • 3) Add 2.5 μl cpd to A1. This gives 2.5 mM {50×} stock cpd—assuming cpds 20 mM. • 4) Repeat for wells A2 to A10. Control in columns 11 and 12. • 5) Transfer 5 μl from row A to row B—not column 12. Mix well. • 6) Transfer 5 μl from row B to row C. […] In column 11 {provides standard curve} only add compound B11-H11. Add 2 μl of 100 mM standard cpd to wells B12-H12 {is positive control } • 13)The Z′ factor is calculated from zero controls and positive wells. It typically gives a value of 0.7-0.9.
The compounds tested in the above assay were assigned to one of two activity ranges, namely A=<10 μM; B=>10 μM, and those assignments are reported above.

T2 sequence (P08238 whole entry): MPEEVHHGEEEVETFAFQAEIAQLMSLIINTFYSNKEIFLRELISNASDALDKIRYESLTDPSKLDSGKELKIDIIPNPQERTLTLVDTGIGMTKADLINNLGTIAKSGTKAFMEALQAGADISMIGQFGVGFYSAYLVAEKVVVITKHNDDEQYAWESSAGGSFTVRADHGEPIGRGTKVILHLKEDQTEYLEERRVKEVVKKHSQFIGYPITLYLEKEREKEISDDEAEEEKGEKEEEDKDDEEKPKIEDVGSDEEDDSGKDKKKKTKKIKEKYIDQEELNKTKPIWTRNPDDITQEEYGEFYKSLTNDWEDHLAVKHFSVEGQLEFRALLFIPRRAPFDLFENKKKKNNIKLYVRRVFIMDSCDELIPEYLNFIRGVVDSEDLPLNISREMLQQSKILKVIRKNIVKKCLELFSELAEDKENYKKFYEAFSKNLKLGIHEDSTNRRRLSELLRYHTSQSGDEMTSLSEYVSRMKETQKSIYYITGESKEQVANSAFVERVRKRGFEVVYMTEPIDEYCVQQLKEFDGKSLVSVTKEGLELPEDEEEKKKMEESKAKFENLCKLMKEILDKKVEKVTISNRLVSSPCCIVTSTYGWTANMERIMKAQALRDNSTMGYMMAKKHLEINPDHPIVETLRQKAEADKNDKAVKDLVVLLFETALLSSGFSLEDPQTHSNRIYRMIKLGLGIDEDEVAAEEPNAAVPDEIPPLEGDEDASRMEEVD
T1 sequence (P02829 whole entry): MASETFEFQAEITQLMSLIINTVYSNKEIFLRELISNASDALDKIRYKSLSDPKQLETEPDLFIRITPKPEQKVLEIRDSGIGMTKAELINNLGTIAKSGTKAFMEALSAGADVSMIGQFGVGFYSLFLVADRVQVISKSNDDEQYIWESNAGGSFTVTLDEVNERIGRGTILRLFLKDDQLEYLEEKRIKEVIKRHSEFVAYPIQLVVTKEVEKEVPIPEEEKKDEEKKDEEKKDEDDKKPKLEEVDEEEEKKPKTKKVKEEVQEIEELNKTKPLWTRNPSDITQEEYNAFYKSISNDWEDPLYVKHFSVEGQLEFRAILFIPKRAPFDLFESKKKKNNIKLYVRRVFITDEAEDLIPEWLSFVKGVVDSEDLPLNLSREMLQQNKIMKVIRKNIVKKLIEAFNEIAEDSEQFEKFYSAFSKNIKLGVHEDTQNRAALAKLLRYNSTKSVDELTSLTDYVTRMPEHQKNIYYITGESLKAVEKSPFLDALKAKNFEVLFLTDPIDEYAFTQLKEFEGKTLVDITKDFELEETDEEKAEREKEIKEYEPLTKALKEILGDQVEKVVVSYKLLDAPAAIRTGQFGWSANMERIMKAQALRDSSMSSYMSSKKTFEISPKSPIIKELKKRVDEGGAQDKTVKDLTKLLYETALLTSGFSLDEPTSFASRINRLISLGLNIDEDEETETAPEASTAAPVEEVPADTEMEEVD

IC50 [1] [µM] | IC50 [3] [µM] | Structure (SMILES) | IC50 [2] [µM]
 | > 10 | CC(=O)Nc1ccc(-c2n[nH]cc2N2CCNCC2)c(O)c1 [Example 53, 3-[4-Acetamido-2-hydroxyphenyl]-4-(piperazin-1-yl)-1H-pyrazole] | 
 | > 10 | Cc1c[nH]c2cc(O)c(-c3n[nH]cc3N3CCNCC3)cc12 [Example 54, 3-Methyl-5-(4-piperazin-1-yl-1H-pyrazol-3-yl)-1H-indol-6-ol] | 
 | < 10 | OCc1[nH]nc(-c2cc(Cl)c(O)cc2O)c1N1CCNCC1 [Example 50, 4-Chloro-6-(5-hydroxymethyl-4-piperazin-1-yl-1H-pyrazol-3-yl)-benzene-1,3-diol] | 

The next lines start with the molecule.

Structure (SMILES) | IC50 [1] [µM] | IC50 [3] [µM] | IC50 [2] [µM]
Oc1cc(O)c(-c2n[nH]cc2N2CCNCC2)cc1Cl [Example 2, 4-Chloro-6-(4-piperazin-1-yl-1H-pyrazol-3-yl)-benzene-1,3-diol] | < 50 |  | < 50
O=S(=O)(c1ccsc1)N1CCN(c2c[nH]nc2-c2cc(Cl)c(O)cc2O)CC1 [Example 48] |  | < 10 | 
Cc1[nH]nc(-c2cc(Cl)c(O)cc2O)c1N1CCNCC1 [Example 49, 4-Chloro-6-(5-methyl-4-piperazin-1-yl-1H-pyrazol-3-yl)-benzene-1,3-diol] |  | < 10 | 
CNC(=O)c1cccc(CN2CCN(c3c[nH]nc3-c3cc(Cl)c(O)cc3O)CC2)c1 [Example 44] |  | < 10 | 

— patent publication US7612201B2, “Pyrazole compounds” (Vernalis (Cambridge) Limited, priority 2002, dated 2009)
